Reference: patent US10206394B2, “Herbicidal compounds” (Syngenta Participations AG, priority 2014, dated 2019)
Read-outs that look alike come from different tables or passages of the source.

Tests used:
Assay in all cases: Glasshouse assay for herbicidal activity (pre- and post-emergence), percentage phytotoxicity
Type in all cases: in vivo
[1] = tested on: Echinochloa crus-galli (ECHCG); conditions: Echinochloa crus-galli
Method: (§1) Test—Glasshouse Assay for Herbicidal Activity
(§2) Seeds of a variety of monocotyledonous and dicotyledonous test plants are sown in standard soil in pots. The plants are cultivated for one day (for pre-emergence (PRE)) or for about 12 days (for post-emergence (POST)) under controlled conditions in a glasshouse (warm climate species at 24/18° C., cool climate species at 20/16° C., both at day/night; 16 hours light; 65% humidity).
(§3) The test plants are then grown on, in a glasshouse (greenhouse) under controlled conditions (warm climate species at 24/18° C., cool climate species at 20/16° C., both at day/night; 16 hours light; 65% humidity) and are watered twice daily. 15 days after application of the test herbicide (15 DAA) (for post-emergence), and 20 days after application of the test herbicide (20 DAA) (for pre-emergence), the test plants are evaluated visually, and an assessed percentage phytotoxicity score is given for each herbicidal application on each plant species (with 100%=total damage to plant; 0%=no damage to plant).
(§4) The plant species tested are as follows: Alopecurus myosuroides (ALOMY), Avena fatua (AVEFA), Lolium perenne (LOLPE), Echinochloa crus-galli (ECHCG).

[2] = tested on: Avena fatua (AVEFA); conditions: Avena fatua
Method: as §1, §2, §3, §4

[3] = tested on: Lolium perenne (LOLPE); conditions: Lolium perenne
Method: as §1, §2, §3, §4

[4] = tested on: Alopecurus myosuroides (ALOMY); conditions: Alopecurus myosuroides
Method: as §1, §2, §3, §4

[5] = post-emergence, 360 h, 250 g/ha, post-emergence, 15 DAA, visual assessment (100%=total damage, 0%=no damage), read-out: Post-emergence herbicidal activity (percentage phytotoxicity) ECHCG POST
[6] = pre-emergence, 480 h, 250 g/ha, pre-emergence, 20 DAA, visual assessment (100%=total damage, 0%=no damage), read-out: Pre-emergence herbicidal activity (percentage phytotoxicity) ECHCG PRE
[7] = post-emergence, 360 h, 250 g/ha, post-emergence, 15 DAA, visual assessment (100%=total damage, 0%=no damage), read-out: Post-emergence herbicidal activity (percentage phytotoxicity) AVEFA POST
[8] = pre-emergence, 480 h, 250 g/ha, pre-emergence, 20 DAA, visual assessment (100%=total damage, 0%=no damage), read-out: Pre-emergence herbicidal activity (percentage phytotoxicity) AVEFA PRE
[9] = post-emergence, 360 h, 250 g/ha, post-emergence, 15 DAA, visual assessment (100%=total damage, 0%=no damage), read-out: Post-emergence herbicidal activity (percentage phytotoxicity) LOLPE POST
[10] = pre-emergence, 480 h, 250 g/ha, pre-emergence, 20 DAA, visual assessment (100%=total damage, 0%=no damage), read-out: Pre-emergence herbicidal activity (percentage phytotoxicity) LOLPE PRE
[11] = post-emergence, 360 h, 250 g/ha, post-emergence, 15 DAA, visual assessment (100%=total damage, 0%=no damage), read-out: Post-emergence herbicidal activity (percentage phytotoxicity) ALOMY POST
[12] = pre-emergence, 480 h, 250 g/ha, pre-emergence, 20 DAA, visual assessment (100%=total damage, 0%=no damage), read-out: Pre-emergence herbicidal activity (percentage phytotoxicity) ALOMY PRE
[13] = post-emergence, 360 h, POST-emergence, rate 250 g/ha, visual score 15 DAA (100%=total damage, 0%=no damage), read-out: Post-emergence herbicidal activity (percentage phytotoxicity) ECHCG POST
[14] = pre-emergence, 480 h, PRE-emergence, rate 250 g/ha, visual score 20 DAA (100%=total damage, 0%=no damage), read-out: Pre-emergence herbicidal activity (percentage phytotoxicity) ECHCG PRE
[15] = post-emergence, 360 h, POST-emergence, rate 250 g/ha, visual score 15 DAA (100%=total damage, 0%=no damage), read-out: Post-emergence herbicidal activity (percentage phytotoxicity) AVEFA POST
[16] = pre-emergence, 480 h, PRE-emergence, rate 250 g/ha, visual score 20 DAA (100%=total damage, 0%=no damage), read-out: Pre-emergence herbicidal activity (percentage phytotoxicity) AVEFA PRE
[17] = post-emergence, 360 h, POST-emergence, rate 250 g/ha, visual score 15 DAA (100%=total damage, 0%=no damage), read-out: Post-emergence herbicidal activity (percentage phytotoxicity) LOLPE POST
[18] = pre-emergence, 480 h, PRE-emergence, rate 250 g/ha, visual score 20 DAA (100%=total damage, 0%=no damage), read-out: Pre-emergence herbicidal activity (percentage phytotoxicity) LOLPE PRE
[19] = post-emergence, 360 h, POST-emergence, rate 250 g/ha, visual score 15 DAA (100%=total damage, 0%=no damage), read-out: Post-emergence herbicidal activity (percentage phytotoxicity) ALOMY POST
[20] = pre-emergence, 480 h, PRE-emergence, rate 250 g/ha, visual score 20 DAA (100%=total damage, 0%=no damage), read-out: Pre-emergence herbicidal activity (percentage phytotoxicity) ALOMY PRE

| Compound | pest or weed control at 250 g/ha [1, 5] [%] | pest or weed control at 250 g/ha [1, 6] [%] | pest or weed control at 250 g/ha [2, 7] [%] | pest or weed control at 250 g/ha [2, 8] [%] | pest or weed control at 250 g/ha [3, 9] [%] | pest or weed control at 250 g/ha [3, 10] [%] | pest or weed control at 250 g/ha [4, 11] [%] | pest or weed control at 250 g/ha [4, 12] [%] | pest or weed control at 250 g/ha [1, 13] [%] | pest or weed control at 250 g/ha [1, 14] [%] | pest or weed control at 250 g/ha [2, 15] [%] | pest or weed control at 250 g/ha [2, 16] [%] | pest or weed control at 250 g/ha [3, 17] [%] | pest or weed control at 250 g/ha [3, 18] [%] | pest or weed control at 250 g/ha [4, 19] [%] | pest or weed control at 250 g/ha [4, 20] [%] | further results |
| --- | --- | --- | --- | --- | --- | --- | --- | --- | --- | --- | --- | --- | --- | --- | --- | --- | --- |
| Cc1cc(C)c(C2C(=O)CC(CC(=O)NCc3cccc(C#N)c3)C2=O)c(C)c1 (stereo not drawn) [Compound B9] | 70 | 100 | 70 | 70 | 70 | 90 | 70 | 70 |  |  |  |  |  |  |  |  |  |
| Cc1cc(-c2ncc(Cl)cc2F)cc(C)c1C1C(=O)CC(CC(=O)NCc2ccc(OC(F)(F)F)cc2)C1=O (stereo not drawn) [Compound A121] |  |  |  |  |  |  |  |  |  |  |  |  |  |  |  |  | pest or weed control at 250 g/ha ([1]; post-emergence, 360 h, Rate 250 g/ha, post-emergence, assessed visually 15 DAA, 100%=total damage, 0%=no damage, read-out: Post-emergence herbicidal activity (percentage phytotoxicity) ECHCG POST): 100%; pest or weed control at 250 g/ha ([1]; pre-emergence, 480 h, Rate 250 g/ha, pre-emergence, assessed visually 20 DAA, 100%=total damage, 0%=no damage, read-out: Pre-emergence herbicidal activity (percentage phytotoxicity) ECHCG PRE): 90%; pest or weed control at 250 g/ha ([2]; post-emergence, 360 h, Rate 250 g/ha, post-emergence, assessed visually 15 DAA, 100%=total damage, 0%=no damage, read-out: Post-emergence herbicidal activity (percentage phytotoxicity) AVEFA POST): 100%; pest or weed control at 250 g/ha ([2]; pre-emergence, 480 h, Rate 250 g/ha, pre-emergence, assessed visually 20 DAA, 100%=total damage, 0%=no damage, read-out: Pre-emergence herbicidal activity (percentage phytotoxicity) AVEFA PRE): 90%; pest or weed control at 250 g/ha ([3]; post-emergence, 360 h, Rate 250 g/ha, post-emergence, assessed visually 15 DAA, 100%=total damage, 0%=no damage, read-out: Post-emergence herbicidal activity (percentage phytotoxicity) LOLPE POST): 100%; pest or weed control at 250 g/ha ([3]; pre-emergence, 480 h, Rate 250 g/ha, pre-emergence, assessed visually 20 DAA, 100%=total damage, 0%=no damage, read-out: Pre-emergence herbicidal activity (percentage phytotoxicity) LOLPE PRE): 80%; pest or weed control at 250 g/ha ([4]; post-emergence, 360 h, Rate 250 g/ha, post-emergence, assessed visually 15 DAA, 100%=total damage, 0%=no damage, read-out: Post-emergence herbicidal activity (percentage phytotoxicity) ALOMY POST): 100%; pest or weed control at 250 g/ha ([4]; pre-emergence, 480 h, Rate 250 g/ha, pre-emergence, assessed visually 20 DAA, 100%=total damage, 0%=no damage, read-out: Pre-emergence herbicidal activity (percentage phytotoxicity) ALOMY PRE): 90% |
| Cc1cc(-c2ccc(Br)cn2)cc(C)c1C1C(=O)CC(CC(=O)NC(C)C)C1=O (stereo not drawn) [Compound B296] |  |  |  |  |  |  |  |  | 100 | 100 | 100 | 90 | 100 | 90 | 100 | 90 |  |
| Cc1cc(-c2ncc(Cl)cc2Cl)cc(C)c1C1C(=O)CC(CC(=O)NC(C)(C)C)C1=O (stereo not drawn) [Compound A168] |  |  |  |  |  |  |  |  |  |  |  |  |  |  |  |  | pest or weed control at 250 g/ha ([1]; post-emergence, 360 h, post-emergence, 250 g/ha, 15 DAA, visual score (100%=total damage; 0%=no damage), read-out: ECHCG POST herbicidal activity (percentage phytotoxicity)): 100%; pest or weed control at 250 g/ha ([1]; pre-emergence, 480 h, pre-emergence, 250 g/ha, 20 DAA, visual score (100%=total damage; 0%=no damage), read-out: ECHCG PRE herbicidal activity (percentage phytotoxicity)): 80%; pest or weed control at 250 g/ha ([2]; post-emergence, 360 h, post-emergence, 250 g/ha, 15 DAA, visual score (100%=total damage; 0%=no damage), read-out: AVEFA POST herbicidal activity (percentage phytotoxicity)): 90%; pest or weed control at 250 g/ha ([2]; pre-emergence, 480 h, pre-emergence, 250 g/ha, 20 DAA, visual score (100%=total damage; 0%=no damage), read-out: AVEFA PRE herbicidal activity (percentage phytotoxicity)): 20%; pest or weed control at 250 g/ha ([3]; post-emergence, 360 h, post-emergence, 250 g/ha, 15 DAA, visual score (100%=total damage; 0%=no damage), read-out: LOLPE POST herbicidal activity (percentage phytotoxicity)): 100%; pest or weed control at 250 g/ha ([3]; pre-emergence, 480 h, pre-emergence, 250 g/ha, 20 DAA, visual score (100%=total damage; 0%=no damage), read-out: LOLPE PRE herbicidal activity (percentage phytotoxicity)): 80%; pest or weed control at 250 g/ha ([4]; post-emergence, 360 h, post-emergence, 250 g/ha, 15 DAA, visual score (100%=total damage; 0%=no damage), read-out: ALOMY POST herbicidal activity (percentage phytotoxicity)): 90%; pest or weed control at 250 g/ha ([4]; pre-emergence, 480 h, pre-emergence, 250 g/ha, 20 DAA, visual score (100%=total damage; 0%=no damage), read-out: ALOMY PRE herbicidal activity (percentage phytotoxicity)): 80% |
| CCc1cccc(C)c1C1C(=O)CC(CC(=O)N2CCOCC2)C1=O (stereo not drawn) [Compound B148] | 100 | 100 | 100 | 70 | 90 | 80 | 90 | 70 |  |  |  |  |  |  |  |  |  |
| C#CC(C)(C)NC(=O)CC1CC(=O)C(c2c(C)cc(-n3cc(Cl)cn3)cc2C)C1=O (stereo not drawn) [Compound B313] |  |  |  |  |  |  |  |  | 90 | 100 | 70 | 80 | 70 | 90 | 90 | 90 |  |
